Assay results as given in patent publication US20230346771A1, “INHIBITORS OF ENPP1 AND MODULATION OF BONE GROWTH” (Petragen, Inc., priority 2022, published 2023).

Test system: fenestration defects on buccal aspect of mandibular first molar in mice
Assay: Fenestration defect model with microCT of mandibles
Type: in vivo
Conditions: high dose (10 uM, 1 uL on collagen sponge in defect); 28 days; compared to ALPL, DMSO and low dose
Description: Fenestration defects were created on buccal aspect of mandibular first molar, distal root, in 6-7 week old mice. Collagen sponge with 1 uL of either alkaline phosphatase (ALPL) (100 ng/uL), DMSO (1 uL undiluted), high dose ENPP1 inhibitor (10 uM), low dose ENPP1 inhibitor (1 uM) was applied in the defect (n=3 or 4 for each group). Mice were euthanized 28 days later, and their mandibles were microCT scanned (unoperated side, defect side). A region of interest was defined as follows: • Right and left sides registered to each other to standardize position; • 480 microns mesial to and 3600 microns distal to first molar mesial height of contour; and
Unoperated side with defect side were registered, the enamel was removed from analysis, and change in volume (defect side—control side) was calculated from for dentin/cementum and alveolar bone for each treatment: ALPL, DMSO, low dose ENPP1 inhibitor, and high dose ENPP1 inhibitor. Regenerated bone area was much larger than defect size. To make the defect, muscle attachment was severed, and the region was curetted. Because the collagen sponge was placed in the defect and not fully enclosed (muscle was repositioned and sutured over sponge), there could be some leakage of DMSO/ALP/ENPP1 inhibitor, further stimulating bone growth.

COc1ccc2c(-c3ccc(CNS(N)(=O)=O)cc3)ccnc2c1 [ENPP1 inhibitor, N-[[4-(7-methoxy-4-quinolinyl)phenyl]methyl]-sulfamide]
bone densities on the fenestration side (density heat maps): higher
